Reference: patent US8901307B2, “Chemical compounds 251” (AstraZeneca AB, priority 2008, dated 2014)
Where a name gives a salt, the structure may show the parent alone.

Columns and labels:
human His-PIM1 [2-313] = molecular target: T1, human His-PIM1 [2-313] (Homo sapiens, UniProt P11309); experiment: PIM1 in-vitro mobility shift assay (Caliper LC3000, FL-Ahx-Bad phosphorylation); assay type: biochemical; conditions: 1.5 h; percent inhibition at 0.3 uM compound; read-out: PIM1 % I at 0.3 uM
T1 construct: purified human His-PIM1 [2-313] enzyme; His (N); purchased University of Dundee, Scotland; host or cells: baculovirus system
T1 sequence (P11309 2-313): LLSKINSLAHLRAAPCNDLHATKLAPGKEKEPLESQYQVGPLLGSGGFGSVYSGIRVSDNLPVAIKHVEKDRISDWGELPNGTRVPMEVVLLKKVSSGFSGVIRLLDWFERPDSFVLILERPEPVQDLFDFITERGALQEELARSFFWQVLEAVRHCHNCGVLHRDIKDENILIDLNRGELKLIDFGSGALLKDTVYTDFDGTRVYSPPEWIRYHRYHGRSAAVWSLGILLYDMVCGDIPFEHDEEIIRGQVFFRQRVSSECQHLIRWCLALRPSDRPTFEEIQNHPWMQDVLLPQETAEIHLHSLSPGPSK
Outline: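 Compound preincubated 20 min at 25 °C with 2.4 nM PIM1, 3.6 µM FL-Ahx-Bad peptide and 240 µM ATP (1.2× mix concentrations). Reaction started with 24 mM MgCl2 mix, run 90 min at 25 °C, EDTA-stopped. Phospho/unphospho peptide separated by microfluidic mobility shift; percent inhibition from ratiometric turnover.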

human His-PIM2 [23-299] = molecular target: T2, human His-PIM2 [23-299] (Homo sapiens, UniProt Q9P1W9); experiment: PIM2 in-vitro mobility shift assay (Caliper LC3000, FL-Ahx-Bad phosphorylation); assay type: biochemical; conditions: 1.5 h; percent inhibition at 0.3 uM compound; read-out: PIM2 % I at 0.3 uM
T2 construct: purified human His-PIM2 [23-299] enzyme; His (N); host or cells: E. coli
T2 sequence (Q9P1W9 23-299): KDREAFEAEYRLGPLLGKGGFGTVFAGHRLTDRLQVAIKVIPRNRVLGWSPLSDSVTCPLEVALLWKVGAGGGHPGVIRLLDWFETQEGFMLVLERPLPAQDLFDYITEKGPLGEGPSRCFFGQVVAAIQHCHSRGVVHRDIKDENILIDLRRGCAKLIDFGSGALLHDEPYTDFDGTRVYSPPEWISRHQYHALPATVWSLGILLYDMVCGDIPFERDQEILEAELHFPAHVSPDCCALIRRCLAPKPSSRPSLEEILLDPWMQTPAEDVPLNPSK

inhibition at 0.3 µM (human His-PIM1 [2-313]) [%] | inhibition at 0.3 µM (human His-PIM2 [23-299]) [%] | SMILES
> 95 | > 95 | COCCOc1cccc(/C=C2\SC(=O)NC2=O)c1N1CC[C@H](N)C1 [Example 122AB, (S,Z)-5-(2-(3-aminopyrrolidin-1-yl)-3-(2-methoxyethoxy)benzylidene)thiazolidine-2,4-dione hydrochloride]
> 95 | > 95 | CNCCN[C@@H]1CCCN(c2c(Cl)cccc2/C=C2\SC(=O)NC2=O)C1 [Example 122S, (R,Z)-5-(3-chloro-2-(3-(2-(methylamino)ethylamino)piperidin-1-yl)benzylidene)thiazolidine-2,4-dione hydrochloride]
27.8 | < 5 | O=C1NC(=O)/C(=C/c2cccc(OCCCN3CCCCC3)c2)S1 [Example 84D, (Z)-5-(3-(3-(piperidin-1-yl)propoxy)benzylidene)thiazolidine-2,4-dione]
90 | 27.4 | O=C1NC(=O)/C(=C/c2cc(C(F)(F)F)cc(Cl)c2N2CCN(CCO)CC2)S1 [Example 28]
88.1 | 73.1 | COc1cc(/C=C2\SC(=O)NC2=O)c(N2CCC(N(C)C)CC2)cc1OC [Example 54, (5Z)-5-{2-(4-(dimethylamino)piperidin-1-yl)-4,5-dimethoxybenzylidene}-thiazolidine-2,4-dione]
82.8 | 44.6 | COCC(=O)N[C@H]1CCN(c2c(Cl)cccc2/C=C2\SC(=O)NC2=O)C1 [Example 136]
93.3 | 91.9 | O=C1NC(=O)/C(=C/c2ccccc2N2CCCN(C(=O)C3CCCNC3)CC2)S1 (centres unmarked) [Example 102, (Z)-5-(2-(4-(piperidine-3-carbonyl)-1,4-diazepan-1-yl)benzylidene)thiazolidine-2,4-dione hydrochloride]
82.9 | 15.8 | O=C1NC(=O)/C(=C/c2cc(C(F)(F)F)cc(Cl)c2N2CCN(CC3CC3)CC2)S1 [Example 21]
51.2 | 22.7 | O=C1NC(=O)/C(=C/c2ccc3ncccc3c2)S1 [Example 77, (5Z)-5-(quinolin-6-ylmethylene)-1,3-thiazolidine-2,4-dione trifluoroacetate]
> 95 | 79.9 | O=C1NC(=O)/C(=C/c2cc(C(F)(F)F)cc(Cl)c2N2CCCNCC2)S1 [Example 5A]
> 95 | 93.5 | COc1cc(/C=C2\SC(=O)NC2=O)c(N2CCC(N(C)C)C2)cc1OC (centres unmarked) [Example 52, (5Z)-5-{2-[4-(dimethylamino)pyrrolidin-1-yl]-4,5-dimethoxybenzylidene}-1,3-thiazolidine-2,4-dione]
86.5 | 25.7 | CCN(CC)CCOc1ccccc1/C=C1\SC(=O)NC1=O [Example 64, (Z)-5-(2-(2-(diethylamino)ethoxy)benzylidene)thiazolidine-2,4-dione]
> 95 | 92.4 | NCCC(=O)N1CCCN(c2ccccc2/C=C2\SC(=O)NC2=O)CC1 [Example 105, (Z)-5-(2-(4-(3-aminopropanoyl)-1,4-diazepan-1-yl)benzylidene)thiazolidine-2,4-dione hydrochloride]
> 95 | 92.4 | NCCCC(=O)N1CCCN(c2ccccc2/C=C2\SC(=O)NC2=O)CC1 [Example 104, (Z)-5-(2-(4-(4-aminobutanoyl)-1,4-diazepan-1-yl)benzylidene)thiazolidine-2,4-dione hydrochloride]
> 95 | 92.8 | O=C1NC(=O)/C(=C/c2ccccc2N2CCCNCC2)S1 [Example 106, (Z)-5-(2-(1,4-diazepan-1-yl)benzylidene)thiazolidine-2,4-dione hydrochloride]
> 95 | > 95 | NCCN1CCN(c2ccccc2/C=C2\SC(=O)NC2=O)CC1 [Example 112, (Z)-5-(2-(4-(2-aminoethyl)piperazin-1-yl)benzylidene)thiazolidine-2,4-dione hydrochloride]

Continued, compound first:

SMILES | inhibition at 0.3 µM (human His-PIM1 [2-313]) [%] | inhibition at 0.3 µM (human His-PIM2 [23-299]) [%]
O=C1NC(=O)/C(=C/c2cn[nH]c2)S1 [Example 71, (Z)-5-((1H-pyrazol-4-yl)methylene)thiazolidine-2,4-dione] | < 5 | < 5
CNCCNC1CCN(c2cc(OC)c(OC)cc2/C=C2\SC(=O)NC2=O)C1 (centres unmarked) [Example 113, (Z)-5-(4,5-dimethoxy-2-(3-(2-(methylamino)ethylamino)pyrrolidin-1-yl)benzylidene)thiazolidine-2,4-dione hydrochloride] | > 95 | > 95
NCCCC(=O)N1CCN(c2ccccc2/C=C2\SC(=O)NC2=O)CC1 [Example 107, (Z)-5-(2-(4-(4-aminobutanoyl)piperazin-1-yl)benzylidene)thiazolidine-2,4-dione hydrochloride] | > 95 | > 95
COCCOc1cccc(/C=C2\SC(=O)NC2=O)c1N1CCC[C@@H](N)C1 [Example 122AA, (R,Z)-5-(2-(3-aminopiperidin-1-yl)-3-(2-methoxyethoxy)benzylidene)thiazolidine-2,4-dione hydrochloride] | > 95 | > 95
COc1ccc(OCCN2CCOCC2)c(/C=C2\SC(=O)NC2=O)c1 [Example 62, (Z)-5-(5-methoxy-2-(2-morpholinoethoxy)benzylidene)thiazolidine-2,4-dione] | 62.1 | 17.5
CC(C)Oc1cccc(/C=C2\SC(=O)NC2=O)c1N1CCC[C@@H](N)C1 [Example 122O, (R,Z)-5-(2-(3-aminopiperidin-1-yl)-3-isopropoxybenzylidene)thiazolidine-2,4-dione hydrochloride] | > 95 | > 95
C[C@@H]1CN(c2ccc(C(F)(F)F)cc2/C=C2\SC(=O)NC2=O)C[C@H](C)N1 [Example 34, (Z)-5-(2-((3S,5R)-3,5-dimethylpiperazin-1-yl)-5-(trifluoromethyl)benzylidene)thiazolidine-2,4-dione hydrochloride] | > 95 | 39.3
COc1ccc(N2CCC(N(C)C)CC2)c(/C=C2\SC(=O)NC2=O)c1 [Example 44, (5Z)-5-{2-[4-(dimethylamino)piperidin-1-yl]-5-methoxybenzylidene}-1,3-thiazolidine-2,4-dione] | 83.8 | 46.7
COc1cc(/C=C2\SC(=O)NC2=O)c(-c2ccncc2)cc1OC [Example 66, (Z)-5-(4,5-dimethoxy-2-(pyridin-4-yl)benzylidene)thiazolidine-2,4-dione] | 50.3 | 20.9
COc1cc(/C=C2\SC(=O)NC2=O)c(N2CCC(NC(=O)CCN)C2)cc1OC (centres unmarked) [Example 128] | 81.2 | 49
COc1cccc(/C=C2\SC(=O)NC2=O)c1N1CCNCC1 [Example 97, (Z)-5-(3-methoxy-2-(piperazin-1-yl)benzylidene)thiazolidine-2,4-dione hydrochloride] | > 95 | 86.4
NCCCCC(=O)N1CCN(c2ccccc2/C=C2\SC(=O)NC2=O)CC1 [Example 108, (Z)-5-(2-(4-(5-aminopentanoyl)piperazin-1-yl)benzylidene)thiazolidine-2,4-dione hydrochloride] | > 95 | > 95
